Data on two molecules can be found in patent US11707442B2, “Antibacterial and antifungal compounds” (The General Hospital Corporation, priority 2015, dated 2023).

Usually MIC stands for the lowest concentration that inhibits growth of the organism.

Converted amounts (≈) assume the structure as drawn. Like-named read-outs stand apart in the source and are kept apart here.

Data set [1] concerns A. baumannii. Kind of data set: MIC, broth microdilution. The class given is cell-based, Acinetobacter baumannii. Particulars: A. baumannii ATCC 17978. The text has this: (§1) Bacterial strains and growth conditions and persister isolation: methicillin-resistant S. aureus (MRSA) strain MW2 BAA-1707, vancomycin-resistant S. aureus strain VRS 1, 11 clinical S. aureus isolates, 8 clinical Enterococcus faecium isolates, Klebsiella pneumoniae WGLW2 (BEI Resources, Manassas, Va., USA), Acinetobacter baumannii ATCC 17978, Pseudomonas aeruginosa PA14, and Enterobacter aerogenes ATCC 13048 were used to test antimicrobial activity (See Table 1a). S. aureus and E. faecium strains were grown in tryptic soy broth (TSB) (BD, Franklin Lakes, N.J., USA) or brain-heart infusion (BHI) broth (BD, Franklin Lakes, N.J., USA), respectively at 37° C. at 225 rpm. K. pneumoniae, A. baumannii, P. aeruginosa, and E. aerogenes were grown in Luria Bertani (LB) broth (BD, Franklin Lakes, N.J., USA).
(§2) To test the bacterial MICs for compounds described herein, the total volume in each well was 100 μl of test compounds and bacterial cells in MH broth. […] The bacterial concentration was adjusted to an initial OD600 of 0.03. After incubation at 35° C. for 18 hrs, the absorbance was measured at 595 nm in accordance with CLSI document M07-A8. The MICs of antibiotics were determined by the standard microdilution method recommended by the Clinical and Laboratory Standards Institute.
A general note: In broth dilution the organism is exposed to a series of concentrations in liquid medium.

For data set [2], the system named is S. aureus persister cells (stationary phase). Kind of data set: Persister killing assay. The class given is cell-based, Staphylococcus aureus. Particulars: 4 μg/ml CD437 or CD1530 or 10 μg/ml gentamicin alone. The procedure:
Persister killing assay. […] Persister cells of these 13 S. aureus strains were developed by growing cultures overnight to stationary phase at 37° C. at 225 rpm. The overnight cultures were washed three times with PBS and diluted to ˜10^7 CFU/ml with the same buffer, which is the same concentration as used in the killing kinetics assay described herein. 1 ml of the persister suspension containing appropriate concentrations of antibiotics was added to the wells of a 2 ml deep well assay block (Corning Costar 3960) and incubated at 37° C., with shaking at 225 rpm. At specific times, 50 μl samples were removed, serially diluted and spot-plated on TSA plates to enumerate the number of live cells. These experiments were conducted in triplicate.

Another data set relates to P. aeruginosa. Kind of data set: MIC, broth microdilution. Type of data set: cell-based, Pseudomonas aeruginosa. Particulars: P. aeruginosa PA14.
Source text: as §1, §2

Data set [3] concerns E. faecium. Briefly: MIC, broth microdilution. The class given is cell-based, Enterococcus faecium. The method, boiled down:
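MIC by CLSI broth microdilution (M07-A8) in MH broth; E. aerogenes, K. pneumoniae and A. baumannii pre-grown in LB, E. faecium in BHI, at 37° C. Inoculum at initial OD600 0.03, incubated 18 hrs at 35° C., growth read as absorbance at 595 nm.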

For the next data set, the system named is S. aureus. Kind of data set: Minimal inhibitory concentration (MIC), broth microdilution. Type of data set: cell-based, Staphylococcus aureus. The method, boiled down:
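MIC values against methicillin-resistant Staphylococcus aureus were determined by standard broth microdilution following Clinical and Laboratory Standards Institute guidance (CLSI document M07-A8). Each well held 100 μl of test compound plus bacterial cells in MH broth, with the starting OD600 set to 0.03. Plates were incubated 18 hrs at 35° C. and absorbance was then read at 595 nm.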

Data set [4] concerns S. aureus MW2 (MRSA) in neutropenic mouse thigh. Particulars: previous study (Conlon 2013); cited from earlier work.
For a further data set, the system named is E. aerogenes ATCC 13048. Kind of data set: MIC, broth microdilution. Type of data set: cell-based, Enterobacter aerogenes. Particulars: E. aerogenes ATCC 13048.
Source text: as §1, §2

The subject of a further data set is K. pneumonia WGLW2. Kind of data set: MIC, broth microdilution. Type of data set: cell-based, Klebsiella pneumoniae. Particulars: K. pneumonia WGLW2.
Source text: as §1, §2

Data set [5] deals with E. faecium. Kind of data set: Disc clearing assay. Type of data set: cell-based, Enterococcus faecium. Particulars: result in words. As for the experimental part: (§3) Disc clearing assay: The disc diffusion test was performed on Mueller Hinton (MH) agar plates for bacterial cultures and yeast extract, peptone, dextrose (YPD) for fungal cultures. The assay was repeated 3 times. Discs were soaked in 10 μl of either DMSO or 10 mg/ml compound stock solution and air-dried. Three hundred microliters of an overnight culture of bacteria or fungi were spread on plates. After completely drying the agar plate in a laminar flow hood, DMSO or compound impregnated discs were overlaid on the plate and incubated at 35° C. for 18 hrs.

Another data set deals with P aeruginosa. Kind of data set: Disc clearing assay. The class given is cell-based, Pseudomonas aeruginosa. Particulars: result in words. The procedure: as §3
Data set [6] concerns A. baumannii. Briefly: Disc clearing assay. Particulars: result in words. The class given is cell-based, Acinetobacter baumannii. As for the experimental part:
as §3

The next data set concerns HepG2 cells. Kind of data set: Toxicity assay with HepG2 liver cells (WST-1). Particulars: 24 hours; result in words. Type of data set: cell-based. As for the experimental part: HepG2 cells were cultured in Dulbecco's modified Eagle medium (DMEM) containing 10% fetal bovine serum, 25 mM D-glucose, 2 mM L-glutamine, 1 mM sodium pyruvate and 1% penicillin/streptomycin and maintained at 37° C. in 5% CO2. For the toxicity test, HepG2 were cultured at 70-80% confluence in 96-well plates in a volume of 100 μl/well culture medium. Serially diluted chemical compounds were incubated with the cells at 37° C. in 5% CO2 for 24 hours. Ten microliters of 4-(3-(4-iodophenyl)-2-(4-nitrophenyl)-2H-5-tetrazolio)-1,3-benzene disulfonate (WST-1) solution were added per well for the last 4 hours of the 24 hours period. WST-1 reduction was detected using absorbance at 490 nm by a Vmax microplate reader. The percent […] relative to that of the no-treatment control was calculated. The assay was done in triplicate.
(In general: Formazan colour is commonly taken as a measure of viable cells.)

In another data set the test system is human erythrocytes. Kind of data set: Human blood hemolysis. Particulars: increasing concentrations; result in words. The class given is cell-based.
The next data set relates to E. spp. Briefly: Disc clearing assay. The class given is cell-based, Enterobacter sp. Particulars: result in words. The procedure: as §3
The next data set concerns K. pneumoniae. Briefly: Disc clearing assay. Type of data set: cell-based, Klebsiella pneumoniae. Particulars: result in words. The procedure:
as §3

Protocol for human erythrocytes: Human blood hemolysis. Hemolytic activity of retinoids on human erythrocytes was evaluated using a previously described method with modifications (Rajamuthiah, R. et al. A defensin from the model beetle Tribolium castaneum acts synergistically with telavancin and daptomycin against multidrug resistant Staphylococcus aureus. PLoS ONE 10, e0128576 (2015)). 10% human erythrocytes were purchased from Rockland Immunochemicals (Limerick, Pa., USA). The erythrocytes were diluted to 4% with PBS, and 100 μl was added to 100 μl of two-fold serial dilutions of compounds in PBS, 0.2% DMSO (negative control), or 2% Triton-X 100 (positive control) in a 96-well plate. The 96-well plate was incubated at 37° C. for 1 h and then centrifuged at 500×g for 5 min. 100 μl of the supernatant was transferred to a fresh 96-well plate, and absorbance of supernatants was measured at 540 nm. Percent hemolysis was calculated using the following equation: (A540 nm of compound treated sample—A540nm of 0.1% DMSO treated sample)/(A540 nm of 1% Triton X-100 treated sample—A540nm of 0.1% DMSO treated sample)×100. HC50 (concentration of a compound causing 50% hemolysis) was determined using SigmaPlot 10.0 (Systat Software Inc., San Jose, Calif., USA).
In a 96 well plate, 50 μl of 2% human erythrocytes suspended in PBS was added to 50 μl of compounds serially diluted in PBS and incubated at 37° C. for 1 hour. The plate was then centrifuged at 500 G for 5 minutes and 50 μl of the supernatant from each well of the assay plate was transferred to a fresh 96 well plate. Hemolysis was confirmed by both visual observation and measuring absorbance at 540 nm. Treatment was conducted in triplicate.
2% human erythrocytes were treated with two-fold serially diluted concentration of the retinoids for 1 h at 37° C. A sample treated with 1% Triton-X 100 was used as the control for 100% hemolysis. Results are shown as means±s.d.; n=3.

gentamicin: the Minimum inhibitory concentration with A. baumannii [1] is 1 mg/L; in the data set on P. aeruginosa, 2 mg/L; in the data set with E. faecium [3] (E. faecium C68), more than 64 mg/L; in the data set with E. faecium [3] (E. faecium D14) it was 32 mg/L; in the data set on E. faecium [3] (E. faecium D24) it was more than 64 mg/L; with E. faecium [3] (E. faecium D25), 32 mg/L. In addition, the Minimum inhibitory concentration was 64 mg/L in the data set on E. faecium [3] (E. faecium D29); more than 64 mg/L in the data set with E. faecium [3] (E. faecium E007); 32 mg/L with E. faecium [3] (E. faecium WB213); 64 mg/L in the data set with E. faecium [3] (E. faecium WC176); 1 mg/L in the data set on S. aureus (S. aureus BF1); 1 mg/L with S. aureus (S. aureus BF2). Also, the Minimum inhibitory concentration with S. aureus (S. aureus BF3), in the data set on S. aureus (S. aureus BF4), with S. aureus (S. aureus BF5), with S. aureus (S. aureus BF6), with S. aureus (S. aureus BF7) and with S. aureus (S. aureus BF8) was 1 mg/L in each case. Also, the Minimum inhibitory concentration in the data set on S. aureus (S. aureus BF9) is 1 mg/L; with S. aureus (S. aureus BF10), 1 mg/L; in the data set on S. aureus (S. aureus BF11), 1 mg/L; in the data set on S. aureus (S. aureus MW2), 1 mg/L; in the data set on S. aureus (S. aureus VRS1) it was more than 64 mg/L; in the data set on E. aerogenes ATCC 13048, 2 mg/L. Moreover, in the data set with K. pneumonia WGLW2, the Minimum inhibitory concentration stood at 1 mg/L. Further, the “viability of MW2 persister cells, single agent” value in data set [2] is given as “did not significantly affect”. For the same molecule, the minimum inhibitory concentration (MIC) was found to be 0.25 mg/L in the data set with S. aureus (S. aureus MW2 mutant SP1-8 (graS)); 0.25 mg/L against S. aureus (S. aureus MW2 mutant SP1-48 (graS, manA)); 0.25 mg/L in the data set with S. aureus (S. aureus MW2 mutant SP1-74 (graS, manA, MW2474)); 0.25 mg/L against S. aureus (S. aureus MW2 mutant SP1-100 (graS, manA, MW2474)); 1 mg/L against S. aureus (S. aureus MW2 mutant SP2-13 (yjbH)); 0.25 mg/L against S. aureus (S. aureus MW2 mutant SP2-52 (yjbH, dltB)). In addition, the MIC was 0.25 mg/L against S. aureus (S. aureus MW2 mutant SP2-59 (yjbH, dltB, manA)); 0.25 mg/L with S. aureus (S. aureus MW2 mutant SP2-65 (yjbH, dltB, manA, MW1685)); 0.25 mg/L against S. aureus (S. aureus MW2 mutant SP2-100 (yjbH dltB, manA, MW1685)); 1 mg/L against S. aureus (S. aureus MW2 serial passage culture SP1-1 (no mutated gene)); 1 mg/L against S. aureus (S. aureus MW2 serial passage culture SP2-1 (no mutated gene)). The “reduction of MRSA CFUs in the deep-seated mouse thigh infection model” value in data set [4] is given as “unable to significantly reduce”.

For `CC1COc2c(N3CCN(C)CC3)c(F)cc3c(=O)c(C(=O)OCc4ccccn4)cn1c23` (stereo not drawn) [Z3060, pyridin-2-ylmethyl 9-fluoro-3-methyl-10-(4-methylpiperazin-1-yl)-7-oxo-3,7-dihydro-2H-[1,4]oxazino[2,3,4-ij]quinoline-6-carboxylate], the “zone of inhibition, E. faecium” value in the data set with E. faecium [5] is on record as “zone of inhibition”. Also, the “zone of inhibition, P aeruginosa” value with P aeruginosa is “zone of inhibition”. In addition, the “zone of inhibition, A. baumannii” value in the data set with A. baumannii [6] was “zone of inhibition”. Also, the HepG2 cell viability result with HepG2 cells is recorded as “cell viability are maintained”. For the same molecule, the MIC was 2 mg/L (≈ 4.42 µM) in the data set on S. aureus (Staphylococcus aureus, S. aureus (reference strain), read-out: MIC) and 1 to 2 mg/L (≈ 2.21 to 4.42 µM) in the data set with S. aureus (Staphylococcus aureus, clinical isolates of S. aureus (Z3060), read-out: MIC). Further, the MIC change result against S. aureus (clinical isolates known to be drug resistant, result in words) is on record as “increased”. In addition, the “toxicity (hemolysis) to erythrocytes” value in the data set on human erythrocytes was “did not exhibit lysis”. Besides, the “zone of inhibition, E. spp.” value in the data set on E. spp. was “zone of inhibition”. The “zone of inhibition, K. pneumoniae” value in the data set with K. pneumoniae is on record as “zone of inhibition”.
